Experimental data published in US20100029646A1, “PRODRUGS OF DIPHENYL OX-INDOL-2-ONE COMPOUNDS” (Topo Target A/S, priority 2006, published 2010).

SMILES	melting point [°C]
O=C(Nc1ccccc1)Oc1ccc(C2(c3ccc(OC(=O)Nc4ccccc4)cc3)C(=O)Nc3c2ccc(F)c3F)cc1	163 to 165
O=C1N(CCO)c2c(ccc(F)c2F)C1(c1ccc(O)cc1)c1ccc(F)cc1 (stereo not drawn) [Compound 1007, 6,7-Difluoro-3-(4-fluorophenyl)-1-(2-hydroxyethyl)-3-(4-hydroxyphenyl)-1,3-dihydro-2H-indol-2-one]	80 to 83
O=C(CCN1CCOCC1)Oc1ccc(C2(c3ccc(F)cc3)C(=O)Nc3c2ccc(F)c3F)cc1 (stereo not drawn) [Compound 1009, 4-[6,7-Difluoro-3-(4-fluorophenyl)-2-oxo-2,3-dihydro-1H-indol-3-yl]phenyl 3-morpholinopropanoate]	174 to 175
CN1CCN(CCC(=O)Oc2ccc(C3(c4ccc(F)cc4)C(=O)Nc4c3ccc(F)c4F)cc2)CC1 (stereo not drawn) [Compound 1010, 4-[6,7-Difluoro-3-(4-fluorophenyl)-2-oxo-2,3-dihydro-1H-indol-3-yl]phenyl 3-(4-methylpiperazino)propanoate]	149 to 151

Further lines, results first:

melting point [°C]	SMILES
63 to 65	COc1ccc(C2(c3ccc(OCOC(=O)OC(C)C)cc3)C(=O)N(COC(=O)OC(C)C)c3ccccc32)cc1 (stereo not drawn) [Compound 1011, [3-(4-{[(Isopropoxycarbonyl)oxy]methoxy}phenyl)-3-(4-methoxyphenyl)-2-oxo-2,3-dihydro-1H-indol-1-yl]methyl isopropyl carbonate]
223 to 225	C=CC(=O)Oc1ccc(C2(c3ccc(F)cc3)C(=O)Nc3c2ccc(F)c3C)cc1 (stereo not drawn) [Compound 1016, 4-[6-Fluoro-3-(4-fluorophenyl)-7-methyl-2-oxo-2,3-dihydro-1H-indol-3-yl]phenyl acrylate]
